# Experimental data taken from article PMC6022977, “Specificity of Induction of Glycopeptide Antibiotic Resistance in the Producing Actinomycetes” (Antibiotics, 2018).
# Where two headings read alike, the source gives them in different places. Positions of bridges follow the written chain, without caps; N, C: chain ends. Non-standard residues stand in square brackets, D forms with d. Residues, ends and D or L forms follow the SMILES beside them. *: point of attachment. Ileψ(thiazoline)Cys = CC[C@H](C)[C@H](N)C1=N[C@H](C(=O)*)CS1; dOrn = NCCC[C@@H](N)C(=O)O
# How the values were obtained:
# [1] = system: A. teichomyceticus; conditions: for MIC, teicoplanin-induced: Actinoplanes teichomyceticus + 10 µg/ml teicoplanin; for MIC, non-induced: Actinoplanes teichomyceticus non-induced
# Method: (§1) MICs were measured on solid media, since the standard broth dilution method used in unicellular bacteria to determine MICs by turbidity is compromised in mycelial actinomycetes by the formation of multicellular aggregates and by the coexistence of cells in different physiological states (e.g., vegetative mycelium, aerial mycelium, and spores).
# (§2) Cryovials of WCBs were thawed at room temperature and used to inoculate a VSP medium for Nonomuraea spp. and Actinoplanes spp. or YEME for Streptomyces spp. in the presence or the absence of GPAs. The strains were grown to exponential phase (approximately 72 h) at 28 °C with shaking. The mycelium was harvested by centrifugation, suspended in 0.9% (w/v) NaCl, and fragmented by sonication with a Vibracell Albra sonicator 400 W [26]. […] The plates were dried and then incubated at 28 °C. MIC values were determined as the lowest antibiotic concentrations that inhibited visible growth after 10 days of incubation.
# [2] = system: VanY activity in N. gerenzanensis pST30; format: cell-based, Nonomuraea gerenzanensis; conditions: for Effect on VanY activity (membrane extracts): N. gerenzanensis pST30 grown with subinhibitory concentrations of GPAs added at inoculum
# Method: To determine the correlation between the antimicrobial activity of the GPAs and their ability to induce the van resistance system in actinomycetes, we followed the enzyme activities corresponding to either VanX or VanY peptidases in cells growing in liquid culture in the presence or absence of subinhibitory concentrations of GPAs (Figure 1 and Figure 2). The D,D-dipeptidase activity of VanX (Figure 1) and the D,D-carboxypeptidase activity of VanY (Figure 2) were measured by determining the amount of D-Ala released from the hydrolysis of the D-Ala-D-Ala dipeptide and of the Nε-acetyl-L-Lys-D-Ala-D-Ala tripeptide, respectively. D-Ala release was measured by using a D-amino acid oxidase coupled to a peroxidase [25, 31].
# Figure 2 VanY activity in N. gerenzanensis and N. gerenzanensis pST30 grown in the absence (dotted line) or in the presence (continuous line) of subinhibitory concentrations of GPAs added at the moment of inoculum (see material and methods). VanY-specific activity is defined as the number of nanomoles of D-Ala released by the hydrolysis of Nε-acetyl-L-Lys-D-Ala-D-Ala tripeptide at 37 °C per minute per milligram of protein contained in membrane extracts. […] The values represent the averages from three independent experiments, with a standard deviation of <5%.
# (§3) S. coelicolor A3(2), its ΔvanRS mutant, A. teichomyceticus ATCC 31121, N. gerenzanensis ATCC 39727, and N. gerenzanensis pST30 were grown as described above. […] Antibiotics were added to the cultures at the moment of inoculation using concentrations calculated as the half-point of MICs (see below and Table 1), except for vancomycin (10 µg/mL) in S. coelicolor A3(2), as reported by Kwun et al. [10].
# Cells were harvested by centrifugation at 3600× g for 20 min at 4 °C, and then they were suspended in 2 mL of 0.9% (w/v) NaCl per gram of cells (wet weight). All of the following manipulations were conducted at 0 to 4 °C. The mycelium was fragmented by sonication with a Sonics Vibracell VCX 130. […]
# [3] = system: S. coelicolor ∆vanRS; experiment: MIC on solid media, S. coelicolor ∆vanRS; format: cell-based, Streptomyces coelicolor; conditions: MS agar plates, 10^7 CFU sonicated hyphae, 28 °C, 10 days, average of three independent experiments
# Method: as §1, §2
# [4] = system: VanX activity in S. coelicolor; conditions: vancomycin 10 µg/mL
# Method: (§4) The D,D-dipeptidase activity of VanX (Figure 1) and the D,D-carboxypeptidase activity of VanY (Figure 2) were measured by determining the amount of D-Ala released from the hydrolysis of the D-Ala-D-Ala dipeptide and of the Nε-acetyl-L-Lys-D-Ala-D-Ala tripeptide, respectively. D-Ala release was measured by using a D-amino acid oxidase coupled to a peroxidase [25, 31].
# (§5) VanX-specific activity is defined as the number of nanomoles of D-Ala released by the hydrolysis of D-Ala-D-Ala dipeptide at 37 °C per minute per milligram of protein contained in cytoplasmic fractions.
# as §3
# Cells were harvested by centrifugation at 3600× g for 20 min at 4 °C, and then they were suspended in 2 mL of 0.9% (w/v) NaCl per gram of cells (wet weight). All of the following manipulations were conducted at 0 to 4 °C. The mycelium was fragmented by sonication with a Sonics Vibracell VCX 130. Sonication was carried out for 5 min on ice, with cycles of 30 s with an amplitude of 90% (90% of 60 Hz), with breaks of 10 s. […]
# [5] = system: VanX activity in N. gerenzanensis pST30; format: cell-based, Nonomuraea gerenzanensis; conditions: for Growth time within which VanX activity responds to the inducer: N. gerenzanensis pST30, subinhibitory concentrations (vancomycin 10, teicoplanin 1.75, A40926 10 µg/mL), teicoplanin to less extent; for Effect on VanX activity (cytoplasmic fraction): N. gerenzanensis pST30 grown with 10 µg/mL vancomycin, 1.75 µg/mL teicoplanin, 10 µg/mL A40926
# Method: as §4, §5, §3
# Cells were harvested by centrifugation at 3600× g for 20 min at 4 °C, and then they were suspended in 2 mL of 0.9% (w/v) NaCl per gram of cells (wet weight). All of the following manipulations were conducted at 0 to 4 °C. The mycelium was fragmented by sonication with a Sonics Vibracell VCX 130. Sonication was carried out for 5 min on ice, with cycles of 30 s with an amplitude of 90% (90% of 60 Hz), with breaks of 10 s. The samples were then centrifuged at 39,000× g for 15 min, and the supernatants (cytoplasmic fractions) were collected. An alkaline extraction of the pellets (cell debris and membrane fractions) was carried out by adapting a protocol developed previously for extracting membrane-bound proteins [25, 36]. The sedimented pellets were resuspended in ice-cold distilled water containing proteinase inhibitors (0.19 mg/mL phenylmethanesulfonyl fluoride and 0.7 µg/mL pepstatin, both purchased from Sigma-Aldrich), and then, immediately before centrifugation (28,000× g for 15 min at 4 °C), the pH was adjusted to 12 by adding an appropriate volume of 2.5 N NaOH. Immediately after centrifugation, the supernatants were neutralized to pH 7 by adding 0.5 M sodium acetate (pH 5.4). Enzymatic activities in the supernatant (cytoplasmic fractions) and in the resuspended insoluble fractions (membranes) were assayed as reported previously [36] by measuring the release of D-Ala from commercially available dipeptide (D-Ala-D-Ala, 10 mM; Sigma-Aldrich) and tripeptide (Nε-acetyl-L-Lys-D-Ala-D-Ala, 10 mM; Sigma-Aldrich).
# [6] = system: N. gerenzanensis; conditions: for MIC, non-induced: Nonomuraea gerenzanensis non-induced
# Method: as §1, §2
# [7] = system: S. coelicolor
# Method: as §1, §2
# [8] = system: N. gerenzanensis pST30; experiment: MIC on solid media, N. gerenzanensis pST30; format: cell-based, Nonomuraea gerenzanensis; conditions: N. gerenzanensis pST30 (vanRSHAX cluster from A. teichomyceticus); V0.1 agar plates, 28 °C, 10 days; average of three independent experiments
# Method: as §1, §2
# [9] = A. teichomyceticus, V0.1 agar plates, 10^7 CFU sonicated hyphae, 28 °C, 10 days, average of three independent experiments
# [10] = after 72h of growth, average of three independent experiments
# [11] = after 48h of growth, average of three independent experiments
# [12] = N. gerenzanensis, V0.1 agar plates, 10^7 CFU sonicated hyphae, 28 °C, 10 days, average of three independent experiments
# [13] = Nonomuraea gerenzanensis + 2 µg/ml A40926, after 48h of growth, average of three independent experiments
# [14] = Nonomuraea gerenzanensis + 2 µg/ml A40926, after 72h of growth, average of three independent experiments
# [15] = S. coelicolor, MS agar plates, 10^7 CFU sonicated hyphae, 28 °C, 10 days, average of three independent experiments
Compound,"Minimal inhibitory concentration (MIC) [1, 9]","MIC, teicoplanin-induced [1, 10]","MIC, non-induced [1, 11]","MIC, non-induced [1, 10]",Effect on VanY activity (membrane extracts) [2],Growth time at which induced VanY activity reaches its maximum value ([2]; N. gerenzanensis pST30 induced by vancomycin),Minimal inhibitory concentration (MIC) [3],Change of level of VanX enzyme activity within the first 24 h from the induction [4],Growth time within which VanX activity responds to the inducer [5],Effect on VanX activity (cytoplasmic fraction) [5],"Minimal inhibitory concentration (MIC) [6, 12]","MIC, A40926-induced [6, 13]","MIC, A40926-induced [6, 14]","MIC, non-induced [6, 11]","MIC, non-induced [6, 10]","Minimal inhibitory concentration (MIC) [7, 15]",Minimal inhibitory concentration (MIC) [8],Minimal inhibitory concentration (MIC) ([1]; 72 h),Minimal inhibitory concentration (MIC) ([6]; 72 h),Minimal inhibitory concentration (MIC) ([7]; 72 h)
CN[C@H](CC(C)C)C(=O)N[C@H]1C(=O)N[C@@H](CC(N)=O)C(=O)N[C@H]2C(=O)N[C@H]3C(=O)N[C@H](C(=O)N[C@H](C(=O)O)c4cc(O)cc(O)c4-c4cc3ccc4O)[C@H](O)c3ccc(c(Cl)c3)Oc3cc2cc(c3O[C@@H]2O[C@H](CO)[C@@H](O)[C@H](O)[C@H]2O[C@H]2C[C@](C)(N)[C@H](O)[C@H](C)O2)Oc2ccc(cc2Cl)[C@H]1O [Vancomycin],90 ± 4.2 µg/mL,90 ± 2.1 µg/mL,90 ± 2.5 µg/mL,90 ± 1.6 µg/mL,significantly induced,96 h,1.25 ± 0.03 µg/mL,doubled,≤ 48 h,induced,20 ± 1.6 µg/mL,32 ± 0.9 µg/mL,32 ± 0.8 µg/mL,20 ± 0.8 µg/mL,20 ± 0.5 µg/mL,>100 µg/mL,20 ± 1.05 µg/mL,,,
Ramoplanin,20 ± 1 µg/mL,,,,,,0.9 ± 0.025 µg/mL,,,,20 ± 1.2 µg/mL,,,,,0.9 ± 0.045 µg/mL,20 ± 1.1 µg/mL,,,
Teicoplanin,20 ± 1.5 µg/mL,20±0.85 g/ml,20±1 g/ml,20±0.9 g/ml,comparable to the basal level,,1.5 ± 0.02 µg/mL,,≤ 48 h,induced,0.9 ± 0.01 µg/mL,1.2±0.03 g/ml,1.2±0.02 g/ml,0.9±0.01 g/ml,0.9±0.015 g/ml,1.5 ± 0.025 µg/mL,2.75 ± 0.15 µg/mL,,,
CC[C@H](C)[C@H](N)C1=N[C@H](C(=O)N[C@@H](CC(C)C)C(=O)N[C@H](CCC(=O)O)C(=O)N[C@H](C(=O)N[C@H]2CCCCNC(=O)[C@H](CC(N)=O)NC(=O)[C@@H](CC(=O)O)NC(=O)[C@H](Cc3cnc[nH]3)NC(=O)[C@@H](Cc3ccccc3)NC(=O)[C@H]([C@@H](C)CC)NC(=O)[C@@H](CCCN)NC2=O)[C@@H](C)CC)CS1 [Bacitracin] ({Ileψ(thiazoline)Cys}-L[dE]IK[dOrn]I[dF]H[dD]N; lactam 4-C (inferred); N-terminus assumed),,,,,,,0.9 ± 0.035 µg/mL,,,,,,,,,,20 ± 1.2 µg/mL,20 ± 1.15 µg/mL,20 ± 1.3 µg/mL,0.9 ± 0.05 µg/mL
